{"source": "patent US12102685B2", "about": "“Immodulator peptides covalently modified with small molecules” (priority 2020, dated 2024)", "key": {"THP1-Dual monocytes": {"test_system": "THP1-Dual monocytes", "experiment": "Succinic acid in THP1-Dual supernatant (x4A)", "type": "cell-based", "protocol": "Immune modulation functions of immodulator peptides were measured using the monocyte reporter cell line THP1-Dual (Invivogen, San Diego, CA), which provides convenient readouts for STING and NF-kappa-B pathways. Optionally, succinic acid, cytokine and chemokine production were also measured. THP1-Dual cell line was obtained from Invivogen. Cells were grown in a T-75 flask in RPMI Medium containing 20% fetal bovine serum, blasticidin ([…]), zeocin ([…]) and penicillin-streptomycin at 37° C. in a humidified, 5% CO2 incubator. Cells ([…], 8,000 cells/well) were plated in a 96-well plate and incubated overnight at 37 °C in a humidified, 5% CO2 incubator. Next day, […] of compounds were added (quadruplicate wells). After 24 hour incubation with the compound, supernatants were harvested and stored at 4° C. prior to assay.\nSTING activity using reagents QuantiBlu and QuantiLuc respectively, according to the manufacturer's recommendations (Invivogen, San Diego, CA). Succinic acid was measured by using a kit from Megazyme Inc (Cambridge, MA). Control value of activity was set to 100 in each assay. […] PAM3C=25 ng/ml PAM3CSK4 (TLR1/2 inducer); Poly(I:C)=10 ug/ml (TLR3 inducer); PAM2C=25 ng/ml PAM2CSK4 (TLR2/6 inducer); KIN14=4 uM KIN-1400 (RIG-I inducer); cytB=1 uM cytosporone B (Nur77 inducer); C-178=1 uM STING inhibitor; NFkBi=50 ug/ml NFkB inhibitor peptide; SB2021=10 uM p38MAPK inhibitor; *p<0.05, **p<0.01 vs IM3 control; #p<0.01 vs “no inducer” control; SUCC=succinic acid; nd=not done; Peptide was added to cells at 400 nM.\nPeptides were added to cells at 400 nM. […]"}, "[1]": {"experiment": "IM3 / FITC-PI(4,5)P2 binding on metal-charged NTA plates (x9C)", "protocol": "NTA-coated 96-well plates were charged with either 500 uM zinc chloride or 500 uM ferric chloride and washed. Immodulator peptide IM3 (100 ng/well) and FITC-PI(4,5)P2 (50 ng/well) were added, with or without 2 ug/well cold PPI, and incubated at room temperature for 60 minutes. The plate was washed and counted in a fluorometer."}, "rat scald model [2]": {"test_system": "rat scald model", "experiment": "Rat scald model, N-terminally modified nephrilin-iron complexes (x5B)", "type": "in vivo, Sprague Dawley rats", "conditions": "male rats, burn, 2 mg/kg peptide complexed with ferric iron, sc days 1-7", "protocol": "Effect of N-terminal modifications on the efficacy of nephrilin IM3N1 peptide in the rat scald model. In this study, five nephrilin-iron binary complexes were compared: IM3N1 (unmodified) and the following: IM3N1vlp (valproic acid), IM3N1dec (decanoic acid), IM3N1fen (fenofibric acid), and IM3N1ibu (ibuprofen). Adult male Sprague Dawley rats (300 gm, Charles River Laboratories, Wilmington, MA, USA) were injected with peptides formulated with equimolar metal ferric iron once daily by subcutaneous bolus injection, days 1-7.\nTreatment group sizes were (n=6) for each group: group S=sham-treated; group B=burn+vehicle; group N1=burn+2 mg/kg nephrilin IM3N1; group N1V=burn+2 mg/kg IM3N1vlp; group N1D=burn+2 mg/kg IM3N1dec; group N1F=burn+2 mg/kg IM3N1fen; group N1I=burn+2 mg/kg IM3N1ibu. The first dose was administered after completion of the scald procedure. Injection volume was 400 uL. Control animals received the same volume of vehicle. Rat scald model was performed and measurements taken as described in Experiment x5A."}, "burn wound length": {"test_system": "burn wound length", "experiment": "Post-burn wound healing study (x8A)", "type": "in vivo, rats", "conditions": "burn-group treatment as labelled (4 mg/kg), then vehicle weeks 2-6", "protocol": "Experiment x8A. Male rats treated with 4 mg/kg nephrilin peptide IM3N1 for 2 weeks in Example 5 were subsequently treated 3× weekly (Mon-Wed-Fri) for 4 weeks with vehicle (n=12) or with 1 mg/kg IM3vlp peptide (n=12) by subcutaneous bolus injection (200 uL volume). Longitudinal wound length between the hairlines was measured at 6 weeks, and this value was corrected for nose-to-ear length and width of each animal. The mean resulting value (in arbitrary units) is shown below."}, "rat scald model [3]": {"test_system": "rat scald model", "experiment": "Rat scald model, study effects (Table x7A)", "type": "in vivo", "conditions": "burn + IM3N1 4 mg/kg sc once daily for seven days; n=3"}}, "note": "Marks after values point to notes of the source that are not given here. Peptide text beside a SMILES is read from it.", "data": [{"compound": "N=C(N)NCCC[C@H](NC(=O)CNC(=O)[C@H](CCCCN)NC(=O)[C@H](CO)NC(=O)[C@@H]1CCCN1C(=O)[C@H](CCCNC(=N)N)NC(=O)[C@H](CS)NC(=O)[C@H](CCC(N)=O)NC(=O)[C@H](CCCCN)NC(=O)[C@H](CCCCN)NC(=O)[C@H](CCCCN)NC(=O)[C@H](Cc1ccc(O)cc1)NC(=O)[C@H](Cc1ccccc1)NC(=O)CNC(=O)[C@H](CCCCN)NC(=O)[C@@H](N)CCCCN)C(=O)N[C@@H](CCCCN)C(=O)N[C@@H](CCCNC(=N)N)C(=O)NCC(=O)N[C@@H](Cc1ccccc1)C(=O)N[C@@H](CS)C(=O)N[C@@H](Cc1c[nH]c2ccccc12)C(=O)O", "note": "[IM3] (H-KKGFYKKKQCRPSKGRKRGFCW-OH; N-terminus and C-terminus assumed)", "values": [{"measurement": "SUCC", "setting": "THP1-Dual monocytes; peptide 400 nM + KIN1400 (= 100)", "result": 100}, {"measurement": "SUCC", "setting": "THP1-Dual monocytes; peptide 400 nM + KIN1400 + C-178 1 uM", "result": 103.2}, {"measurement": "SUCC", "setting": "THP1-Dual monocytes; peptide 400 nM + KIN1400 + NFkBi 50 ug/ml", "result": 99.2}, {"measurement": "SUCC", "setting": "THP1-Dual monocytes; peptide 400 nM + KIN1400 + SB2021 10 uM", "result": "131.6*"}, {"measurement": "SUCC", "setting": "THP1-Dual monocytes; peptide 400 nM + KIN1400 + cytB 1 uM", "result": 96.1}, {"measurement": "SUCC", "setting": "THP1-Dual monocytes; peptide 400 nM + PAM2C (= 100)", "result": 100}, {"measurement": "SUCC", "setting": "THP1-Dual monocytes; peptide 400 nM + PAM2C + C-178 1 uM", "result": 96.1}, {"measurement": "SUCC", "setting": "THP1-Dual monocytes; peptide 400 nM + PAM2C + NFkBi 50 ug/ml", "result": 100.1}, {"measurement": "SUCC", "setting": "THP1-Dual monocytes; peptide 400 nM + PAM2C + SB2021 10 uM", "result": 93.4}, {"measurement": "SUCC", "setting": "THP1-Dual monocytes; peptide 400 nM + PAM2C + cytB 1 uM", "result": "85.1*"}, {"measurement": "SUCC", "setting": "THP1-Dual monocytes; peptide 400 nM + PAM3C", "result": 100}, {"measurement": "SUCC", "setting": "THP1-Dual monocytes; peptide 400 nM + PAM3C + C-178 1 uM", "result": 95.3}, {"measurement": "SUCC", "setting": "THP1-Dual monocytes; peptide 400 nM + PAM3C + NFkBi 50 ug/ml", "result": 101.5}, {"measurement": "SUCC", "setting": "THP1-Dual monocytes; peptide 400 nM + PAM3C + SB2021 10 uM", "result": 95.8}, {"measurement": "SUCC", "setting": "THP1-Dual monocytes; peptide 400 nM + PAM3C + cytB 1 uM", "result": 95.4}, {"measurement": "fluorescence, FITC-PI(4,5)P2", "setting": "[1]; Ferric iron, cold PI(3)P1 2 ug/well", "result": "78.5 ± 5.8"}, {"measurement": "fluorescence, FITC-PI(4,5)P2", "setting": "[1]; Ferric iron, cold PI(3,5)P2 2 ug/well", "result": "100.0 ± 3.2"}, {"measurement": "fluorescence, FITC-PI(4,5)P2", "setting": "[1]; Ferric iron, no cold PPI", "result": "80.1 ± 1.8"}, {"measurement": "fluorescence, FITC-PI(4,5)P2", "setting": "[1]; No metal, no cold PPI, IM3 100 ng/well", "result": "0.0 ± 0.2"}, {"measurement": "fluorescence, FITC-PI(4,5)P2", "setting": "[1]; Zinc, no cold PPI", "result": "2.2 ± 0.3"}]}, {"compound": "RGVTEDYLRLETLVQKVVSKGFYKKKQCRPSKGRKRGFCW [IM3N1]", "values": [{"measurement": "1: early inflammation (24-hr plasma IL-6)", "setting": "rat scald model [2]", "result": "38.5 ± 27.8", "unit": "pg/mL"}, {"measurement": "2a: 14-day plasma inflammasome marker IL18", "setting": "rat scald model [2]", "result": "220.4 ± 32.1", "unit": "pg/mL"}, {"measurement": "2b: 14-day plasma inflammasome marker IL1b", "setting": "rat scald model [2]", "result": "52.9 ± 7.8", "unit": "pg/mL"}, {"measurement": "3a: 14-day plasma hyperangiogenesis marker VEGF-A", "setting": "rat scald model [2]", "result": "37.8 ± 15.3", "unit": "pg/mL"}, {"measurement": "3b: 14-day plasma hyperangiogenesis marker CCL5", "setting": "rat scald model [2]", "result": "248.3 ± 29.7", "unit": "pg/mL"}, {"measurement": "3c: 14-day plasma hyperangiogenesis marker CXCL5", "setting": "rat scald model [2]", "result": "855 ± 233", "unit": "pg/mL"}, {"measurement": "4: glycemic control, 14-day GTT (AUC)", "setting": "rat scald model [2]", "result": "136.4 ± 69.2", "unit": "mg·dL·h"}, {"measurement": "5: kidney function, 14-day plasma creatinine", "setting": "rat scald model [2]", "result": "0.31 ± 0.09", "unit": "mg/dL"}, {"measurement": "6: systemic oxidative stress, 14-day plasma OHDG", "setting": "rat scald model [2]", "result": "374 ± 187", "unit": "pg/mL"}, {"measurement": "7: weight loss (slope)", "setting": "rat scald model [2]", "result": "2.99 ± 0.53"}, {"measurement": "3d: hyperangiogenesis marker PctRedPix", "setting": "rat scald model [2]", "result": "6.53 ± 3.16"}, {"measurement": "corrected longitudinal wound length at 6 weeks", "setting": "burn wound length", "result": "131.3 ± 18.6", "unit": "arbitrary units"}, {"measurement": "Glycemic Control (GTT AUC)", "setting": "rat scald model [3]", "result": "69.0 ± 18.1", "unit": "mg·dL·h"}, {"measurement": "Kidney Function (eGFR, calculated)", "setting": "rat scald model [3]", "result": "1.29 ± 0.32"}, {"measurement": "Lean Body Mass (DEXA)", "setting": "rat scald model [3]", "result": "328.5 ± 5.1"}, {"measurement": "Urinary 8-isoprostate", "setting": "rat scald model [3]", "result": "4.53 ± 1.21", "unit": "ng/pg cystatin"}]}]}
